Results: US20060147400A1, “Composition, especially a cosmetic composition, containing at least one alkyl para-hydroxybenzoate and at least one lipophilic amino acid derivative” (L'Oreal, priority 2002, published 2006)

Test: Solubility of alkyl para-hydroxybenzoates in a solubilizer/solvent (80° C., stirring one hour, dissolution monitored over time)
Assay type: physicochemical
Settings: comparative; same amount (60% by weight) in water, conventionally used solvent
Method: Protocol: The alkyl para-hydroxybenzoates are weighed out and placed in a hermetic pill bottle. The required amount of lipophilic amino acid derivative (solubilizer) is added. The suspension is brought to 80° C. and stirred. by magnetic stirring for one hour. The dissolution or non-dissolution of the alkyl para-hydroxybenzoate and its change over time are then monitored. The insolubility of the alkyl para-hydroxybenzoate in the solubilizer is characterized macroscopically by a precipitate or just a cloudy solution, and microscopically by the presence of crystals.

SMILES: CCCOC(=O)c1ccc(O)cc1 [propyl para-hydroxybenzoate]
- dissolution or non-dissolution in water: formation of insoluble crystals and a paste
